Experimental data taken from ChEMBL document CHEMBL4340524, “Design and synthesis of a novel 1H-pyrrolo[3,2-b]pyridine-3-carboxamide derivative as an orally available ACC1 inhibitor” (Bioorg Med Chem, 2019).
Converted amounts (≈) assume the structure as drawn. The source made the active and inactive calls. No cut-off for these calls is given here.

Legend:
[1] = Solubility of the compound in pH 6.8 aqueous buffer by HPLC analysis; format: physicochemical
[2] = molecular target: T1, Acetyl-CoA carboxylase 1 (Homo sapiens, UniProt Q13085); assay: Inhibition of recombinant human ACC1 expressed in Sf9 cells using acetyl Co-A as substrate preincubated for 60 mins followed by substrate addition and measured after 30 mins by RapidFire-Mass spectrometry
[3] = molecular target: T1, Acetyl-CoA carboxylase 1; assay: Inhibition of ACC1 in human HCT116 cells assessed as reduction in [14C]acetate uptake preincubated for 60 mins followed by [14C]acetate addition and measured after 2 hrs by top count scintillation counting method; format: cell-based
[4] = AUC (0 to 8 hrs) in ICR mouse at 0.1 mg/kg, iv or 1 mg/kg, po administered as cassette dose by LC-MS/MS analysis; format: ADME, organism-based; details: in vivo
[5] = molecular target: T2, Acetyl-CoA carboxylase 2 (Homo sapiens, UniProt O00763); assay: Inhibition of recombinant human ACC2 expressed in Sf9 cells using acetyl Co-A as substrate preincubated for 60 mins followed by substrate addition and measured after 30 mins by RapidFire-Mass spectrometry
Target sequence in this assay (O00763 whole entry): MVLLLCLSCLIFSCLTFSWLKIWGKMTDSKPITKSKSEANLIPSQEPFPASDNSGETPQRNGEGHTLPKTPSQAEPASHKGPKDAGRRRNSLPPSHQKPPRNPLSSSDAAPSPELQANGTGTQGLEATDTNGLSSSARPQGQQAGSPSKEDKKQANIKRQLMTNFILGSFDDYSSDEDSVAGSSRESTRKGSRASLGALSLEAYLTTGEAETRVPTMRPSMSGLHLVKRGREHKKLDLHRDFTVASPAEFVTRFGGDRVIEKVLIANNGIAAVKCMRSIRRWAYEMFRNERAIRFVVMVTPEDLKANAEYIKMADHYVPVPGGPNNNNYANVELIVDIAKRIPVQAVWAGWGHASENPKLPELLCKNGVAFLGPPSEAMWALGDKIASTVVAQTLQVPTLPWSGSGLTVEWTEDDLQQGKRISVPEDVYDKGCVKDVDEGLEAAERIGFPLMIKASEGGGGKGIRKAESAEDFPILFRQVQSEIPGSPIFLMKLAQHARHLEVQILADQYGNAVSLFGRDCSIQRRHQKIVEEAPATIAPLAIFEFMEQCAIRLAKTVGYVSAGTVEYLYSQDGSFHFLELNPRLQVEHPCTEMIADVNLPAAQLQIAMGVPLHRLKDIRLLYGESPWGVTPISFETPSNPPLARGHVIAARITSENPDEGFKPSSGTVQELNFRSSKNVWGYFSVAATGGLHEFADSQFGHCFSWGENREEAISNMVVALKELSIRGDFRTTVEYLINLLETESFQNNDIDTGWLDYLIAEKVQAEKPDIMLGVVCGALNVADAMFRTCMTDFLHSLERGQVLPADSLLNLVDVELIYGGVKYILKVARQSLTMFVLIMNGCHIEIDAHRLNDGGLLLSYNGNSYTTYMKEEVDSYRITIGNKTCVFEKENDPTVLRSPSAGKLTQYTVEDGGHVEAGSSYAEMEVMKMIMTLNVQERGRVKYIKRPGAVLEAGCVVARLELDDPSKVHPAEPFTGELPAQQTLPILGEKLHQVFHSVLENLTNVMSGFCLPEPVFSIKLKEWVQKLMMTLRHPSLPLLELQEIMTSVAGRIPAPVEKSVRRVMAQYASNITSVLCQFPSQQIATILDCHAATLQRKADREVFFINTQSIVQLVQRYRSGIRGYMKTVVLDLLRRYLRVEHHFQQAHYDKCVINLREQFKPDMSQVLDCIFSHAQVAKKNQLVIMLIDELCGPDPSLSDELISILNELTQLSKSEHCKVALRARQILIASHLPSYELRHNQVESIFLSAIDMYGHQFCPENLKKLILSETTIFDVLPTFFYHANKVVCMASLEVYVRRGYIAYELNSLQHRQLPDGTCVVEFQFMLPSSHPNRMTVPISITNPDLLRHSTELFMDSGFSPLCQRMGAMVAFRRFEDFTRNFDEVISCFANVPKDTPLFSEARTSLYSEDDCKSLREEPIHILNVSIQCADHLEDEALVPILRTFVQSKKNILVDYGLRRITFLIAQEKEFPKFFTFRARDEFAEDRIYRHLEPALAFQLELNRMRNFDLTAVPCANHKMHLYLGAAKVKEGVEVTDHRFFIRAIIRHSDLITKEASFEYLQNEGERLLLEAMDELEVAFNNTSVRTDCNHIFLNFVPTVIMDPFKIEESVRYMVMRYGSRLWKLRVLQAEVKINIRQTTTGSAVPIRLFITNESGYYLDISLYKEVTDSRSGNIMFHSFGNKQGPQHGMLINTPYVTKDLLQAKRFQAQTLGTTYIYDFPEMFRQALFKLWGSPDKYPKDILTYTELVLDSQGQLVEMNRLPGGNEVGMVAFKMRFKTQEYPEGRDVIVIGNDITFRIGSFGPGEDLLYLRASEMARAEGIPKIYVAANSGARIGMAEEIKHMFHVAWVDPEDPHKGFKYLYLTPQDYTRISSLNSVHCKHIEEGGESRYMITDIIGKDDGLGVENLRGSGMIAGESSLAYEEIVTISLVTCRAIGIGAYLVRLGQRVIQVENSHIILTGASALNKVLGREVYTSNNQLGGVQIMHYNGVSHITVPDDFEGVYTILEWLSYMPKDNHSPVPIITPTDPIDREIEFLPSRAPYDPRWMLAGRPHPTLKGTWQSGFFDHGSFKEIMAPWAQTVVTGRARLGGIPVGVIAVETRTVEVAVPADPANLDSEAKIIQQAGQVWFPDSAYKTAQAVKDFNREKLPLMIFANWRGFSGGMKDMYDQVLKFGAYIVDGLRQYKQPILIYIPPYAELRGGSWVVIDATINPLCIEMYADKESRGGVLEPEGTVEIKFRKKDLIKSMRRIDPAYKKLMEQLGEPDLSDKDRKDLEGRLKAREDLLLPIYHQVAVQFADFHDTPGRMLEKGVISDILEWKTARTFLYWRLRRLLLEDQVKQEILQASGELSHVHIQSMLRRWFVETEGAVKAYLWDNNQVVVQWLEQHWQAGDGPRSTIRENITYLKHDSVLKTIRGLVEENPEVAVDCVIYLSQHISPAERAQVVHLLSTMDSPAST

[6] = Oral bioavailability in ICR mouse at 1 mg/kg administered as cassette dose by LC-MS/MS analysis; format: ADME, organism-based; details: in vivo
[7] = molecular target: T1, Acetyl-CoA carboxylase 1; assay: Inhibition of recombinant human ACC1 expressed in Sf9 cells at 10 uM using acetyl Co-A as substrate preincubated for 60 mins followed by substrate addition and measured after 30 mins by RapidFire-Mass spectrometry relative to control
[8] = molecular target: T2, Acetyl-CoA carboxylase 2; assay: Inhibition of recombinant human ACC2 expressed in Sf9 cells at 10 uM using acetyl Co-A as substrate preincubated for 60 mins followed by substrate addition and measured after 30 mins by RapidFire-Mass spectrometry relative to control
Target sequence in this assay (O00763 whole entry, looked up): as the sequence (O00763 whole entry) above

[9] = organism: Homo sapiens; assay: Selectivity ratio of IC50 for recombinant human ACC2 expressed in Sf9 cells to IC50 for recombinant human ACC1 expressed in Sf9 cells
[10] = test system: Mus musculus; assay: In vivo inhibition of ACC1 in BALB/cA Jc1-nu/nu mouse xenografted with human HCT116 cells assessed as suppression of malonyl-CoA synthesis at 100 mg/kg, po administered as single dose measured after 16 hrs by RPLC-MS/MS analysis; format: functional, organism-based

Row | SMILES | solubility [1] | IC50 [2] | IC50 [3] | AUC(0-t) [4] | IC50 [5] | bioavailability [6] | inhibition [7] | inhibition [8] | Ratio IC50 [9] | inhibition [10]
1 | CCn1cc(C(=O)Nc2ccc3[nH]ncc3c2)c2ncc(-c3ccccc3)cc21 | < 60 µg/mL | 1000 nM | 130 nM | 653 ng·h/mL | 3700 nM | 57.7% |  |  |  | 
2 | CC(C)n1cc(C(=O)Nc2ccc3[nH]ncc3c2)c2ncc(-c3ccc(N)cc3)cc21 |  | 210 nM | 490 nM |  | 2200 nM |  |  |  |  | 
3 | Cn1cc(C(=O)Nc2ccc3c(cnn3C)c2)c2ncc(-c3ccccc3)cc21 |  |  |  |  |  |  | 26% |  |  | 
4 | CC(C)n1cc(C(=O)Nc2ccc3[nH]ncc3c2)c2ncc(-c3ccccc3)cc21 | 3200 µg/mL (≈ 8090 µM) | 1600 nM | > 1000 nM | 1700 ng·h/mL | 6400 nM | 59.8% |  |  |  | 
5 | Cn1cc(C(=O)Nc2ccc3[nH]cnc3c2)c2ncc(-c3ccccc3)cc21 |  |  |  |  |  |  | 51% | 31% |  | 
6 | O=C(Nc1ccc2[nH]ncc2c1)c1c[nH]c2cc(-c3ccccc3)ccc12 |  |  |  |  |  |  | -7% | -8% |  | 
7 | Cn1cc(C(=O)Nc2ccc3[nH]ccc3c2)c2ncc(-c3ccccc3)cc21 |  |  |  |  |  |  | 69% |  |  | 
8 | O=C(Nc1ccc2[nH]ncc2c1)c1c[nH]c2cc(-c3ccccc3)cnc12 |  |  |  |  |  |  | 45% | 4% |  | 
9 | CN(C(=O)c1cn(C)c2cc(-c3ccccc3)cnc12)c1ccc2[nH]ncc2c1 |  |  |  |  |  |  | 7% | 6% |  | 
10 | Cn1cc(C(=O)Nc2ccc3[nH]ncc3c2)c2ncc(-c3ccccc3)cc21 | 60 µg/mL (≈ 163 µM) | 820 nM | 430 nM | 189 ng·h/mL | 4000 nM | 39.3% | 99% | 83% | 5 | 
11 | CC(C)n1cc(C(=O)Nc2cc3cn[nH]c3cc2F)c2ncc(-c3ccc(N)cc3)cc21 |  | 170 nM | 150 nM | 647 ng·h/mL | 2000 nM | 63.2% |  |  |  | Active
